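Cultured in 96-well plates, cells were exposed to test compound for 48 hours across five concentrations. At the TGI there is no net growth.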
Experiments:
Assay in all cases: NCI tumour cell line growth inhibition, 48 h
A549 NSCLC = system: A549 NSCLC
CAKI-1 renal = system: CAKI-1 renal
COLO 205 colon = system: COLO 205 colon
DLD-1 colon = system: DLD-1 colon
DMS 114 small cell lung = system: DMS 114 small cell lung
DMS 273 small cell lung = system: DMS 273 small cell lung
EKVX NSCLC = system: EKVX NSCLC
HCC-2998 colon = system: HCC-2998 colon
HCT-15 colon = system: HCT-15 colon
HT29 colon = system: HT29 colon
IGROV1 ovarian = system: IGROV1 ovarian
KM12 colon = system: KM12 colon
KM20L2 colon = system: KM20L2 colon
LOX IMVI melanoma = system: LOX IMVI melanoma
M14 melanoma = system: M14 melanoma
M19-MEL melanoma = system: M19-MEL melanoma
MALME-3M melanoma = system: MALME-3M melanoma
NCI-H226 lung = system: NCI-H226 lung
NCI-H23 lung = system: NCI-H23 lung
NCI-H460 lung = system: NCI-H460 lung
OVCAR-3 ovarian = system: OVCAR-3 ovarian
OVCAR-4 ovarian = system: OVCAR-4 ovarian
OVCAR-5 ovarian = system: OVCAR-5 ovarian
OVCAR-8 ovarian = system: OVCAR-8 ovarian
RXF 393 renal = system: RXF 393 renal
RXF-631 renal = system: RXF-631 renal
SF-295 CNS = system: SF-295 CNS
SF-539 CNS = system: SF-539 CNS
SK-MEL-2 melanoma = system: SK-MEL-2 melanoma
SK-MEL-28 melanoma = system: SK-MEL-28 melanoma
SK-MEL-5 melanoma = system: SK-MEL-5 melanoma
SK-OV-3 ovarian = system: SK-OV-3 ovarian
SN12C renal = system: SN12C renal
SNB-19 CNS = system: SNB-19 CNS
SNB-75 CNS = system: SNB-75 CNS
SR leukemia = system: SR leukemia
SW-620 colon = system: SW-620 colon
TK-10 renal = system: TK-10 renal
U251 CNS = system: U251 CNS
UACC-257 melanoma = system: UACC-257 melanoma
UACC-62 melanoma = system: UACC-62 melanoma
UO-31 renal = system: UO-31 renal
XF 498 CNS = system: XF 498 CNS

Measured: TGI

CCN(CC)CCO[Si](OCCN(CC)CC)(OCCN(CC)CC)OCCN(CC)CC
> 100 µM: A549 NSCLC | CAKI-1 renal | COLO 205 colon | DLD-1 colon | DMS 114 small cell lung | DMS 273 small cell lung | EKVX NSCLC | HCC-2998 colon | HCT-15 colon | HT29 colon | IGROV1 ovarian | KM12 colon | KM20L2 colon | LOX IMVI melanoma | M14 melanoma | M19-MEL melanoma | MALME-3M melanoma | NCI-H226 lung | NCI-H23 lung | NCI-H460 lung | OVCAR-3 ovarian | OVCAR-4 ovarian | OVCAR-5 ovarian | OVCAR-8 ovarian | RXF 393 renal | RXF-631 renal | SF-295 CNS | SF-539 CNS | SK-MEL-2 melanoma | SK-MEL-28 melanoma | SK-MEL-5 melanoma | SK-OV-3 ovarian | SN12C renal | SNB-19 CNS | SNB-75 CNS | SR leukemia | SW-620 colon | TK-10 renal | U251 CNS | UACC-257 melanoma | UACC-62 melanoma | UO-31 renal | XF 498 CNS

Reference: PubChem BioAssay (NCI)
